This is an account of results in patent US20250034586A1, “METHOD FOR EDITING BANANA GENES” (Tropic Biosciences UK Limited, priority 2021, published 2025).

The structures appear in SMILES notation.

Assay [1] has as its system banana ECS. Briefly: Comparison of Agrobacterium transformation and particle bombardment under CSF selection. Format: cell-based. The following applies: CSF 25 μg/L, particle bombardment. As for the experimental part: Transformation using agrobacterium and particle bombardment was compared.
Banana ECS with cells 2/3 days old was pelleted and resuspended in CS medium. 0.5 mL of the suspension (approximately 0.1 mL of ECS) was split accordingly to the number of transformations into small Eppendorf tubes. The cells were incubated at 45° C. for 5 min and after they had cooled down for another 5 min. Then, 1 mL of agrobacterium suspension was added to the banana ECS. The mixture was mixed well and spun down at 1000 rpm for 5 min, and then, it was incubated for 25 min at room temperature. The banana cells were pooled, and the bacteria suspension was removed. The cells were inoculated in CS plates supplemented with acetosyringone 100 μM for 3 days at room temperature to promote transformation.
After 3 days, the banana ECS were collected from the previous media and transferred to CS media supplemented with cefotaxime 300 mg/L. One week later, the banana cells were transferred to EDM plates supplemented with cefo 300 mg/L (control), or cefo 300 mg/L and CSF 25 μg/L or cefo 300 mg/L and CSF 50 μg/L. The media was refreshed every 2 weeks until embryos were developed. Subsequently, the banana embryos were transferred to maturation media without CSF (EMM) for a month and then they were transferred to germination medium (GM4) without CSF until shoots developed.

For the next assay, the system named is banana rooting plantlets. Briefly: CSF kill curves in banana rooting plantlets (in medium, spraying, both). Format: in vivo. As for the experimental part: The effect of CSF was also evaluated in rooting plantlets. Three methods were tested, (i) incorporation of CSF in the rooting medium (RM), (ii) spraying the plantlets with CSF solution and (iii) incorporation in the media of a lower concentration of CSF (0.5 mg/L) and spraying the plantlets (concurrently).
Six CSF concentrations, 0, 0.05, 0.5, 5, 50 and 100 mg/L, were tested in rooting plantlets.
Rooting banana plantlets were cleared of roots and split from the corm to have single shoots for testing with RM medium with or without CSF. Five to six shoots with similar morphology were inoculated into each phytotray.
For spraying tests, CSF solutions (concentrations above) were prepared in sterile deionised water or in 0.015% Silwett L-77. One mL of solution was sprayed onto each phytotray (five shoots per phytotray, so 1 mL between five shoots). For control conditions (Omg/L CSF), 1 mL of deionised water was used.
A range of CSF concentrations (0, 0.05, 0.5, 5, 50, 100 mg/L) were tested in banana rooting shoots. Banana shoots were separated from roots and split to give single shoots that were inoculated into new media to determine the effect of CSF over a month of exposure. To assess the effectiveness of CSF in banana three approaches were tested: (i) incorporation of the toxin in RM medium, (ii) spraying the shoots, and (iii) spraying the shoots plus incorporation of a small amount of CSF […] in RM.

The test system of assay [2] is banana ECS. Briefly: CSF selection of embryos from Agrobacterium-transformed banana ECS. The following applies: after 3 months. Format: cell-based. How it is done: Agrobacterium tumefaciens AGL1 carrying the binary plasmids pMol_0628, pMol_0630, and pMol_0632 were streaked from glycerol in LB solid medium supplemented with rifampicin 50 mg/L, kanamycin 100 mg/L and carbenicillin 50 mg/L and incubated at 28° C. for 2 days. On the second day, the bacteria were inoculated in MG/L medium (discussed in Sarkar et al., Methods Mol Biol. 2013; 966: 187-204) supplemented with the same antibiotics and incubated overnight at 28° C. Next day, the cultures were spun down at 4000 rpm for 10 min to pellet the cells and after they were resuspended in ABIM (Agrobacterium induction media; discussed in Sarkar et al., Methods Mol Biol. 2013; 966: 187-204) to induce virulence and incubated overnight in the dark at room temperature. The OD600 of the bacteria was measured using NanoDrop2000 and normalised to 0.6 in CS liquid media supplemented with acetosyringone (100 μM).
Banana ECS with 2/3 day-old cells was pelleted and resuspended in CS medium. 0.5 mL of the suspension (approximately 0.1 mL of ECS) was split according to the number of transformations into small Eppendorf tubes. The cells were incubated at 45° C. for 5 min and after they were incubated at room temperature for another 5 min. Then, 1 mL of agrobacterium suspension was added to each banana ECS sample. […]

Assay [3] concerns banana WT and ALS edited embryos. Briefly: CSF in ECS regeneration, optimisation for edited embryos. It is filed as cell-based. The following applies: 3 months treatment. As for the experimental part:
Data were obtained for using CSF in ECS regeneration (3 months treatment) for concentrations 0, 25, 50 and 100 μg/L.

For the next assay, the system named is Rice protoplasts. The following applies: for 10dd; cited from earlier work.

In the case of `COc1nc(C)nc(NC(=O)NS(=O)(=O)c2ccccc2Cl)n1` [CSF, chlorsulfuron], the “Suitability for selection of edited bombarded cells” value in the assay with banana ECS [1] is recorded as “too strong for selection of edited bombarded cells”. Moreover, the Severity of symptoms result with banana rooting plantlets (0.05 mg/L CSF in the medium plus spraying with CSF) is reported as “an increase in the severity of symptoms”. The Root development result with banana rooting plantlets (CSF in medium, even at 0.05 mg/L) is on record as “root development was not observed”. In addition, the “Effective CSF concentration added to the medium (plantlets did not develop, chlorotic phenotype)” value in the assay on banana rooting plantlets (CSF incorporated in RM medium, repeated 3 times) is recorded as 0.5 mg/L. Also, in the assay on banana rooting plantlets (spraying banana shoots), the “Lowest concentration that delayed shoot development” value is listed as 5 mg/L. Besides, in the assay on banana rooting plantlets (weekly spraying with 0.5 mg/L CSF), the Shoot development entry is recorded as “quite effective at delaying banana shoot development”. The “Embryos, untransformed cells” value in the assay with banana ECS [2] (CSF 25 μg/L) and with banana ECS [2] (CSF 50 μg/L) was “No” in each case. The figures for the “Frequency of ALS edited embryos recovered after selection” value in assay [3] (CSF 25 μg/L), in assay [3] (CSF 50 μg/L) and in assay [3] (CSF 100 μg/L) were 1500 ± 500, 750 ± 250 and 0, respectively. Besides, the “Frequency of WT embryos recovered after selection” value in assay [3] (CSF 25 μg/L), in assay [3] (CSF 50 μg/L) and in assay [3] (CSF 100 μg/L) was 0 throughout. In addition, the “CSF concentration reported to be effective” value in the assay with Rice protoplasts was 3.6 µg/L.
